Experimental data from patent US8426408B2, “Pyrimidine inhibitors of kinases” (AbbVie Inc., priority 2009, dated 2013).

Columns and labels:
[1] = molecular target: T1, Aurora B (Homo sapiens, UniProt Q96GD4); assay: Aurora B enzyme inhibition (time-resolved fluorescence, histone H3 peptide); format: biochemical; details: 1 mM ATP
T1 construct: Active Aurora B enzyme (recombinant residues 1-344)
Outline: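 IC50s came from an exponential fit of inhibition against inhibitor concentration, with phosphorylation read as the 665/615 nm time-resolved fluorescence ratio after EDTA stop using Eu-anti-phospho-H3 and SA-APC. The 1 h reaction used Aurora B 1-344 plus GST-INCENP, biotin-histone H3 1-21 peptide and 1 mM ATP in pH 7.4 HEPES buffer.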

[2] = molecular target: T2, Aurora A (Homo sapiens, UniProt O14965); assay: Aurora A enzyme inhibition (time-resolved fluorescence, STK substrate-2); format: biochemical; details: 1 mM ATP
T2 sequence (O14965 1-403): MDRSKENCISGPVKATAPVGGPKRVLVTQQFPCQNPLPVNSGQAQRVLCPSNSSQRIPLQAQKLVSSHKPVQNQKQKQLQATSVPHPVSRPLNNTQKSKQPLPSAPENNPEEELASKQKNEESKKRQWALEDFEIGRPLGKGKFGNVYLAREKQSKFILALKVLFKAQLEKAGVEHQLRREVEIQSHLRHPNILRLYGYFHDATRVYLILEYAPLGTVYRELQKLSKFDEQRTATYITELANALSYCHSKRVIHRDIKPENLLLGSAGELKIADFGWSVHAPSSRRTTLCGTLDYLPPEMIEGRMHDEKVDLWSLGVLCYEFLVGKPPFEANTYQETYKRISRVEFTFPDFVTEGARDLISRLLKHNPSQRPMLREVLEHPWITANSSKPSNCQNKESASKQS
Outline: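 Phosphorylation of biotinylated STK substrate-2 at 1 mM ATP, 1 h, Hepes buffer pH 7.4 (MgCl2, sodium orthovanadate, Triton X-100). After EDTA quench, 665/615 nm time-resolved fluorescence ratio read via europium anti-phospho antibody and SA-XL665; IC50 from exponential fit versus inhibitor concentration.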

[3] = molecular target: T3, KDR (Homo sapiens, UniProt P35968); assay: KDR cellular assay (KDR receptor phosphorylation ELISA); format: cell-based; design: expressed in transfected cells; host or cells: 3T3 (embryonic mouse) cells; details: KDR transfected 3T3 (embryonic mouse) cells, VEGF stimulated; read-out: IC50 inhibition of KDR phosphorylation
Procedure: The ability of compounds to inhibit KDR receptor phosphorylation in cells was measured by ELISA following the protocol outlined below.
KDR transfected 3T3 (embryonic mouse) cells added to 96-well tissue culture plates at 20,000 cells/well.
Plates were covered and placed in a 37° C. humidified incubator with 5% CO2 overnight, to allow cells to adhere.
Coating solution was prepared: 500 l/vial PBS was added to 2 vials of anti-KDR antibody, then 1 ml solubilized anti-KDR antibody into 29.0 ml bicarbonate buffer. Coating solution was added to all wells at 150 µl/well (final amount anti-KDR=1 µg/well) and placed at 4° C. overnight.
Blocking solution (2.1 g dry milk+42 ml PBS=5% milk in PBS) was placed on a stir plate for 30 min.
Assay plates were washed twice with PBST, and 200 µl/well blocking solution was added to all wells. Assay plates were covered with plate sealers and placed in a 37° C. microplate chamber until just before cell lysate transfer.
Compound stocks were thawed or prepared in DMSO as 5 mM stocks.
Dilution medium (DM, 1% DMSO in DMEM) and compounds were diluted by half-log increments for concentration response analysis.
Conditioned media was dumped from the tissue culture plates, and plates were blotted dry.
Standard solution in DM, compound dilutions in DM, or DM (for high control, negative control, and reference wells) were added to the tissue culture plates, 25 µl/well. Each pair of tissue culture plates was prepared with the same compounds, solutions, and layout; and will be combined later; Tissue culture plates were covered and placed in the 37° C. microplate chamber for 20 min.
VEGF solution was prepared: 110 l VEGF stock+10.89 ml DM=100 ng/ml VEGF
VEGF solution or DM (for reference wells) was added to the tissue culture plates, 25 μl/well.
Tissue culture plates were covered and placed in the 37° C. microplate chamber for 10 min.
RIPA buffer was prepared (240 l NaVO3 stock+240 l PIC stock+24 l NaF stock+23.496 ml RIPA base) and added to the tissue culture plates, 50 µl/well.
Tissue culture plates were covered and placed on a Labline plate shaker for 10 min (speed about 5).
Assay plates were washed twice with PBST.
Cell lysates from matching wells of each pair of tissue culture plates were combined to =200 µl/well, and were pipetted up and down to mix. Cell lysates were transferred to the assay plates using the same layouts, 170 µl/well.
Assay plates were covered with plate sealers and placed on a Labline plate shaker for 2 hr (speed about 5).
Assay plates were washed 5 times with PBST.
Biotin antibody solution was prepared (16 l biotin antibody stock+32 ml PBST=2000× dilution) and added to the assay plates, 150 µl/well.
Assay plates were covered with plate sealers and placed on a Labline plate shaker for 90 min
Streptavidin-HRP solution was prepared (16 l streptavidin-HRP stock+32 ml PBST=2000× dilution) and added to the assay plates, 150 µl/well.
Assay plates were covered with plate sealers and placed on a Labline plate shaker for 60 min
Substrate was added to the assay plates, 100 µl/well.
As assay plates developed, the plates were each monitored on a Molecular Devices Spectramax set to 650 nm, until the signal in the high control wells was around 0.6 OD and the signal in the negative control wells was around 0.1-0.15 OD.
Stop solution was added to the assay plates, 100 µl/well.
The plates were read on a Molecular Devices Spectramax set to 450 nm.
Data was calculated by Assay Explorer, using same-plate high control wells as 0% and reference standard wells as 100% inhibition of KDR phosphorylation. IC50 values were calculated by non-linear regression analysis of the concentration response data.
Target sequence in this assay (P35968 20-1356): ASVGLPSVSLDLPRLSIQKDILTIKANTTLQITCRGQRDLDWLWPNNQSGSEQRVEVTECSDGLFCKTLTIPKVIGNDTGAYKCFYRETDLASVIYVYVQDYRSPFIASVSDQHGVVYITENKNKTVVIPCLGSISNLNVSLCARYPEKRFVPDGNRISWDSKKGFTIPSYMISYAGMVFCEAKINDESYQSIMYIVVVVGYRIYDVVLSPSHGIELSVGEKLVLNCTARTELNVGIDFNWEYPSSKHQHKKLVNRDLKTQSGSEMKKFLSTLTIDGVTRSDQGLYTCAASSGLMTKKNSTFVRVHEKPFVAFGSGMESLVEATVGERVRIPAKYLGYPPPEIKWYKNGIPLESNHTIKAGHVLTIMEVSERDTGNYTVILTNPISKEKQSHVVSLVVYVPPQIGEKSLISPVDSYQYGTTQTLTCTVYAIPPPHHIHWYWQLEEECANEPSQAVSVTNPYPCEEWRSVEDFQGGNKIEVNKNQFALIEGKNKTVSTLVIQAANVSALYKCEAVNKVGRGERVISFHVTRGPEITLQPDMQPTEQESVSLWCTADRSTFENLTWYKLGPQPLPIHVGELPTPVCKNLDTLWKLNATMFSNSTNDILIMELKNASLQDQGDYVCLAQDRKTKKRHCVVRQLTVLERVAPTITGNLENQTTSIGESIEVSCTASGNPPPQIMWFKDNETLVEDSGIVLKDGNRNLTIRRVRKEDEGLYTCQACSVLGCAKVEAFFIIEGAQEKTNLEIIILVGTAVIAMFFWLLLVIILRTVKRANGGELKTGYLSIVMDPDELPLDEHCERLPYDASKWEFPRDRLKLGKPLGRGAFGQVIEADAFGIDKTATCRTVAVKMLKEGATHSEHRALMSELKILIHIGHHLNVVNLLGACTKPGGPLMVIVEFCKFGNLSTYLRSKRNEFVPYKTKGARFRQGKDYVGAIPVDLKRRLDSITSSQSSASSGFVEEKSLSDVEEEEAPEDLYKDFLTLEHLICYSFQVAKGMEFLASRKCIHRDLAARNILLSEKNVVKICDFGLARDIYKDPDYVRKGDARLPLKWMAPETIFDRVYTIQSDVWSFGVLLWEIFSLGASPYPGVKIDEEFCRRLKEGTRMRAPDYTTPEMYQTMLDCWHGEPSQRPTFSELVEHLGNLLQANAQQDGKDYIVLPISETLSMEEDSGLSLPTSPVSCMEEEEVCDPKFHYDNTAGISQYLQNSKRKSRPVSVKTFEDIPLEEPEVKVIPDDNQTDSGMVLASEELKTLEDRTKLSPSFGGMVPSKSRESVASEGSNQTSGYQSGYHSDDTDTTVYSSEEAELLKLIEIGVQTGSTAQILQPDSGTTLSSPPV

[4] = molecular target: T3, KDR; assay: KDR HTRF in vitro kinase assay; format: biochemical; design: purified enzyme (His6-KDR 789-1354, MW 63 kD); His6 (N); details: 1 mM ATP; read-out: KDR enzyme inhibition data (Ki)
Outline: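 His6-KDR 789-1354 (7 ng/well) with 0.5 μM biotinylated peptide substrate and 1 mM ATP in HEPES pH 7.1, MgCl2/MnCl2, 60 min at room temperature. EDTA-quenched, detected by streptavidin-XL-665 plus Eu-kryptate anti-phosphotyrosine HTRF after 3 h; IC50 from 620/665 nm ratio.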
Target sequence in this assay (P35968 789-1354): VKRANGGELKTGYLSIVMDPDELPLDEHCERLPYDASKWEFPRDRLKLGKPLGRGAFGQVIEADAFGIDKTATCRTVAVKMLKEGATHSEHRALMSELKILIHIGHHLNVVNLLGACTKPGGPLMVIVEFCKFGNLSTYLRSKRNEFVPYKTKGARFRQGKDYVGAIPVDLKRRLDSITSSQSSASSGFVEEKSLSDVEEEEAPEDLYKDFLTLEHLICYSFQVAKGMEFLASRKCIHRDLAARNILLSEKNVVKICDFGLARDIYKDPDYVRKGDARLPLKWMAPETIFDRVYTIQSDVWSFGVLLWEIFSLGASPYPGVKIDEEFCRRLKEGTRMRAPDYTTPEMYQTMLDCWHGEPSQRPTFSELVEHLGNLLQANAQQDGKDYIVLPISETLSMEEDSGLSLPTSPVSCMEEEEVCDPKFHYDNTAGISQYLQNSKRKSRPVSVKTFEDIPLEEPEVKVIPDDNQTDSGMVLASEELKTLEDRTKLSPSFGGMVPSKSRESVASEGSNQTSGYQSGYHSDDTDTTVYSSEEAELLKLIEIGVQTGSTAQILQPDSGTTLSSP

T1 sequence (Q96GD4 whole entry, the tested form may be a part): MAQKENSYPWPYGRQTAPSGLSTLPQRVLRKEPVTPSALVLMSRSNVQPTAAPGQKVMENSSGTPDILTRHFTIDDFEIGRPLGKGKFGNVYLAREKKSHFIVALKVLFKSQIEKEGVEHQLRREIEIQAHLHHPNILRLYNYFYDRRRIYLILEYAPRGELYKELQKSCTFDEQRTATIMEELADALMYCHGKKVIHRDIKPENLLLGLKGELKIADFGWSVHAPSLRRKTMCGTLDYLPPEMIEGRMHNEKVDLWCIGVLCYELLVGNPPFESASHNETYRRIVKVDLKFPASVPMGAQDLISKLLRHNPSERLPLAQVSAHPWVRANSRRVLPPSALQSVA
T1 sequence (Q9NQS7 826-918 partner limits assumed): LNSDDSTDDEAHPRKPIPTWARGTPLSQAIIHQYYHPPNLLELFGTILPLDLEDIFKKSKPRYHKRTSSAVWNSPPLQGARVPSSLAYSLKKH

Cn1cc(Nc2ncc(Cl)c(N[C@@H]3CCCC[C@@H]3C(N)=O)n2)cn1.Cn1cc(Nc2ncc(Cl)c(N[C@H]3CCCC[C@H]3C(N)=O)n2)cn1 (mixture of isomers) [Example 147, (1S,2R)-2-({5-chloro-2-[(1-methyl-1H-pyrazol-4-yl)amino]pyrimidin-4-yl}amino)cyclohexanecarboxamide and (1R,2S)-2-({5-chloro-2-[(1-methyl-1H-pyrazol-4-yl)amino]pyrimidin-4-yl}amino)cyclohexanecarboxamide] showed a Ki [1] of under 100 nM, a Ki [2] of under 100 nM and an IC50 [3] of 100 to 1000 nM. For the same compound, the Ki [4] was under 100 nM.

Cc1c(Nc2ncc(Br)c(N[C@H]3[C@@H](C(N)=O)C[C@H]4C[C@@H]3C4(C)C)n2)cnn1C [Example 185, (1R,2R,3S,5R)-2-({5-bromo-2-[(1,5-dimethyl-1H-pyrazol-4-yl)amino]pyrimidin-4-yl}amino)-6,6-dimethylbicyclo[3.1.1]heptane-3-carboxamide] gave a Ki [1] of under 100 nM, a Ki [2] of under 100 nM and an IC50 [3] of 100 to 1000 nM. It also gave a Ki [4] of under 100 nM.

In the case of CC(C)NC(=O)[C@H]1CCC[C@H]1Nc1nc(Nc2cnn(CCN3CCOCC3)c2)ncc1Cl [Example 164, (1S,2R)-2-{[5-chloro-2-({1-[2-(morpholin-4-yl)ethyl]-1H-pyrazol-4-yl}amino)pyrimidin-4-yl]amino}-N-isopropylcyclopentanecarboxamide], the Ki [1] is reported as under 100 nM, the Ki [2] is reported as under 100 nM and the IC50 [3] is reported as 100 to 1000 nM. For the same compound, the Ki [4] was 100 to 1000 nM.

With Cn1cc(Nc2ncc(Cl)c(N[C@@H]3[C@H](C(N)=O)[C@H]4C=C[C@@H]3C4)n2)cn1.Cn1cc(Nc2ncc(Cl)c(N[C@H]3[C@@H](C(N)=O)[C@@H]4C=C[C@H]3C4)n2)cn1 (mixture of isomers) [Example 27, (1S,2S,3R,4R)-3-({5-chloro-2-[(1-methyl-1H-pyrazol-4-yl)amino]pyrimidin-4-yl}amino)bicyclo[2.2.1]hept-5-ene-2-carboxamide and (1R,2R,3S,4S)-3-({5-chloro-2-[(1-methyl-1H-pyrazol-4-yl)amino]pyrimidin-4-yl}amino)bicyclo[2.2.1]hept-5-ene-2-carboxamide] the Ki [1] was under 100 nM, the Ki [2] was under 100 nM and the IC50 [3] was under 100 nM. The Ki [4] was under 100 nM.

Work on NC(=O)[C@@H]1[C@H](Nc2nc(Nc3cnn(CC(F)(F)F)c3)ncc2C(F)(F)F)[C@H]2C=C[C@@H]1C2 (racemic) [Example 32, (1S,2S,3R,4R)-3-{[2-{[1-(2,2,2-trifluoroethyl)-1H-pyrazol-4-yl]amino}-5-(trifluoromethyl)pyrimidin-4-yl]amino}bicyclo[2.2.1]hept-5-ene-2-carboxamide and (1R,2R,3S,4S)-3-{[2-{[1-(2,2,2-trifluoroethyl)-1H-pyrazol-4-yl]amino}-5-(trifluoromethyl)pyrimidin-4-yl]amino}bicyclo[2.2.1]hept-5-ene-2-carboxamide] yielded a Ki [1] of under 100 nM, a Ki [2] of under 100 nM and an IC50 [3] of under 100 nM. The Ki [4] was under 100 nM.

CC1(C)[C@H]2C[C@H](C(N)=O)[C@H](Nc3nc(Nc4cnn(Cc5ccccc5)c4)ncc3Cl)[C@@H]1C2 [Example 187, (1R,2R,3S,5R)-2-({2-[(1-benzyl-1H-pyrazol-4-yl)amino]-5-chloropyrimidin-4-yl}amino)-6,6-dimethylbicyclo[3.1.1]heptane-3-carboxamide] showed a Ki [1] of under 100 nM, a Ki [2] of under 100 nM and an IC50 [3] of 100 to 1000 nM. It also gave a Ki [4] of under 100 nM.

Compound Cc1nc(Nc2cnn(C)c2)nc(N[C@@H]2[C@H](C(N)=O)[C@H]3C=C[C@@H]2C3)c1Cl.Cc1nc(Nc2cnn(C)c2)nc(N[C@H]2[C@@H](C(N)=O)[C@@H]3C=C[C@H]2C3)c1Cl (mixture of isomers) [Example 125, (1S,2S,3R,4R)-3-({5-chloro-6-methyl-2-[(1-methyl-1H-pyrazol-4-yl)amino]pyrimidin-4-yl}amino)bicyclo[2.2.1]hept-5-ene-2-carboxamide and (1R,2R,3S,4S)-3-({5-chloro-6-methyl-2-[(1-methyl-1H-pyrazol-4-yl)amino]pyrimidin-4-yl}amino)bicyclo[2.2.1]hept-5-ene-2-carboxamide] has a Ki [1] of under 100 nM, a Ki [2] of 100 to 1000 nM and an IC50 [3] of 100 to 1000 nM. The Ki [4] was 100 to 1000 nM.
